In patent US4053481A, “2-Aryl-3,4-diphenylisoxazolin-5-ones” (G. D. Searle & Co., priority 1976, dated 1977):

Tested on: microsomal-cytosol fraction
Assay: % inhibition of C14-acetate incorporation into lipid fractions (fatty acid and cholesterol biosynthesis) in rat liver microsomal-cytosol fraction
Format: biochemical, Male Charles River rats
Conditions: 0.001 M; 37° C., 90 minutes
Procedure: The instant compounds are useful as pharmacological agents as evidenced by their ability to reduce serum triglyceride and cholesterol levels as determined in the following assay:
Male Charles River rats (160-200 g.), having had free access to food and water, are administered a standard diet containing 2% DEAE - cellulose (Reeve Angel anion exchange resin) for 5 days. The rats then are sacrificed and their livers removed immediately. The livers are homogenized in a medium consisting of 0.1 M potassium phosphate, pH 7.4, 0.004 m MgCl2 and 0.03 M nicotinamide, and the microsomalcytosol fraction obtained by centrifugation. 2.0 Ml. of the microsomal-cytosol fraction is incubated, at 37° C. for 90 minutes for fatty acid measurements and for measurement of cholosterol biosynthesis, in a standard assay mixture containing 10 micromoles of sodium acetate containing 0.1 microcuries of 2-C^14 -acetate, 2 micromoles nicotinamide adenine dinucleotide, 2 micromoles nicotinamide adenine dinucleotide phosphate, and 20 micromoles glucose-6-phosphate, and test compound, initially at 0.001 M, is added. All assays are run in duplicate with the assay to which no test compound is added serving as control. Heat inactivated homogenate serves as blank for both control and test systems.
Reaction rate is determined per unit of time by the amount of C^14 label incorporated into the lipid fraction from the radioactive acetate. Results are reported as % inhibition (i.e. (Difference in Reaction Rate between Control and Test Compound/Reaction Rate for Control) × 100).
Typical results are shown below in Table I for the product of Example 2, referred to as Compound I. Also represented are the results for Atromid S® , a brand of clofibrate, marketed as a hypocholesterolemic agent.

With `CCOC(=O)C(C)(C)Oc1ccc(Cl)cc1` [Atromid-S, clofibrate] the “% Inhibition, Fatty Acid Fraction” value was 24%, the “% Inhibition, Fraction (first column, qualifier not given)” value was 28% and the “% Inhibition, Non-Lipid Fraction” value was 42%.
